Test system: K562 cells
Experiment: Annexin-V/PI assay of ultrasonically induced apoptosis in the presence of active oxygen scavengers
Format: cell-based, Human
Conditions: L-histidine 10 mM and/or mannitol 100 mM; for percentage of cells displaying phosphatidylserine externalization: 5 hours post-treatment, mean ± SEM, 4 experiments
Protocol: Human leukemia cell lines (K562, Nalm-6, KG1a, and HL-60) obtained from the American Type Culture Collection (ATCC, Rockville, Md., USA) were grown in RPMI-1640 (BioWhittaker, Walkersville, Md., USA) supplemented with 10% fetal calf serum (Gibco, Grand Island, N.Y., USA) and 1% L-glutamine (Gibco). Leukemic cells were harvested, resuspended in phosphate-buffered saline (PBS, pH=7.2, Gibco), and immediately used for the experiment. Heparinized venous blood was obtained from healthy volunteers and leukemic patients. Mononuclear cells were separated by Ficoll-Hypaque gradient density centrifugation (International Medical Products, Brussels, Belgium). The following describes the ultrasonic treatment on the cells. Human leukemia cell lines (K562, HL-60, KG1a, and Nalm-6), primary leukemic cells, and normal mononuclear cells were treated by ultrasound at a frequency of 1.8 MHz during various exposure times at an acoustical power of 7 mW/mL and irradiation (ON/OFF) cycles of 5.5 ms/3 ms. During apoptosis, phosphatidylserine residues flip from the inside to the outside of the plasma membrane and this change can be detected using Annexin-FITC, which binds to the PS residues. The following describes an Annexin V binding assay that was performed. Flow cytometric analysis of Annexin-V-fluorescein isothiocyanate (FITC)-and propidium iodide (PI)-stained cells was performed using the kit purchased from Biosource International (Camarillo, Calif., USA) as recommended by the manufacturer. Data were presented as dot plots showing the change in mean fluorescence intensity of Annexin-V-FITC/propidium iodide (not shown). The following procedure was performed to determine the effect of active oxygen scavengers on the induction of apoptosis by high-frequency ultrasound. K562 cells were incubated with L-histidine (10 mM) and/or mannitol (100 mM). Some cells were treated by high-frequency ultrasound and others were not. Cell apoptosis was detected by an Annexin-V/PI assay.

Row | SMILES | percentage of cells displaying phosphatidylserine externalization (1 US treatment) | percentage of cells displaying phosphatidylserine externalization (3 US treatments) | inhibition at 100000 µM (Homo sapiens, K562, apoptosis induced by 3 successive ultrasound treatments) | percentage of cells displaying phosphatidylserine externalization (No US treatment) | inhibition of apoptosis (apoptosis induced by 3 successive ultrasound treatments)
1 | OC[C@@H](O)[C@@H](O)[C@H](O)[C@H](O)CO [Mannitol, mannitol] | 21 ± 5% | 30 ± 3% | 47% | 11 ± 4% | 
2 | N[C@@H](Cc1c[nH]cn1)C(=O)O [Histidine, L-histidine] | 24 ± 8% | 36 ± 11% |  | 15 ± 5% | 43%
